Laboratory results published in patent US20210301315A1, “METHODS FOR TREATING POLYMICROBIAL INFECTIONS” (priority 2017, published 2021).
Entries after “also recorded” stand apart in the source; their conditions may differ.

Experiments:
[1] = system: bacteria detected in patient urine specimens; test: Pooled Antibiotic Susceptibility Testing (P-AST) of urine specimens, polymicrobial v. monomicrobial (logistic regression); type: cell-based; conditions: polymicrobial urine specimens
Text: The present invention describes Pooled Antibiotic Susceptibility Testing (P-AST), which involves simultaneously growing all detected bacteria together in the presence of antibiotics and then measuring susceptibility. […] Urine specimens were obtained from patients presenting with UTI-like symptoms to 37 urology clinics. The odds of resistance were estimated for 18 antibiotics relative to increasing numbers of bacterial species in a specimen.
The following study combines data from two studies of antibiotic resistance patterns in elderly patients presenting with symptoms consistent with a UTI. […] All subjects met the following inclusion and exclusion criteria. Inclusion criteria included: symptoms of acute cystitis, complicated UTI, persistent UTI, recurrent UTI, prostatitis, pyelonephritis, interstitial cystitis (at any age), symptoms of other conditions at years of age, specimen volumes sufficient to permit urine culture and Multiplex Polymerase Chain Reaction (M-PCR) combined with Pooled Antibiotic Sensitivity Testing (P-AST), patient informed consented, documented times at which the specimens were collected and stabilized with boric acid in grey-top tubes. Exclusion criteria included prior participation in this study, antibiotics taken for any reason other than UTI at the time of enrollment, chronic (≥10 days) indwelling catheters, self-catheterization, and urinary diversion.
(§6) The Pooled Antibiotic Sensitivity Test (P-AST) is permitting the organisms identified to grow in the presence of antibiotics and measuring the minimum concentration of antibiotic to inhibit growth. Antibiotic susceptibility testing is performed when at least a single organism within a pool of organisms reaches a certain threshold, (e.g., at least 3,000 cells/ml, at least 5,000 cells/ml, at least 10,000 cells/ml, etc.) and can grow in the presence of the antibiotic in the assay within the time of testing. […] These pools of organism(s) are inoculated into growth medium then placed onto an antibiotic laden “spec plate” that is then incubated and analyzed for growth. The breakpoints are derived from the CLSI breakpoints.

[2] = system: Coagulase-negative Staphylococcus (CoNS) and K. pneumoniae; test: P-AST species-pair interaction on antibiotic resistance (logistic regression, HSAP/UP); type: cell-based, Coagulase negative staphylococci; Klebsiella pneumoniae; conditions: CoNS and K. pneumoniae together v. expected from each species alone (HSAP/UP)
Experimental: (§1) The Pooled Antibiotic Sensitivity Test (P-AST) is permitting the organisms identified to grow in the presence of antibiotics and measuring the minimum concentration of antibiotic to inhibit growth. Antibiotic susceptibility testing is performed when at least a single organism within a pool of organisms reaches a certain threshold, (e.g., at least 3,000 cells/ml, at least 5,000 cells/ml, at least 10,000 cells/ml, etc.) and can grow in the presence of the antibiotic in the assay within the time of testing. (Note: 10,000 cells/ml is equivalent to 10,000 CFU/ml.) The present invention is not limited to a 10,000 cells/mL threshold. These pools of organism(s) are inoculated into growth medium then placed onto an antibiotic laden “spec plate” that is then incubated and analyzed for growth. The breakpoints are derived from the CLSI breakpoints.
(§2) P-AST was performed by aliquoting 1 mL of patient urine specimen into a 1.7 mL microcentrifuge tube. After centrifugation, the supernatant was aspirated and discarded, leaving approximately 100 or 50 μL (minimum volume left above pellet created from centrifugation) of patient sample in the microcentrifuge tube. One mL of Mueller Hinton Growth Media was then aliquoted into the patient sample in the microcentrifuge tube and the tubes were incubated at 35° C. in a non-CO2 incubator for 6 hours. Non-inoculated liquid MH-media is incubated as the negative control to confirm the media used is not contaminated. Those samples that reached a minimum threshold of 10,000 cells/mL were then diluted by aliquoting 0.5 mL of sample into a 50 mL conical tube containing Mueller Hinton Growth Media (in this example, the dilution was 1:60, e.g., 500 μL was added to 29.5 mL). 96-well plates pre-loaded with antibiotics were then inoculated with diluted samples and incubated along with control plates for 12-16 hours at 35° C. in a single layer. Optical density of samples was then read on a DensiCHEK plate reader. The DensiCHEK instrument is used to measure the concentration of turbid samples considered positive because PCR-ID result was >=10,000 cells/mL. The turbid samples were diluted/normalized to the same concentration and then added to a volume of liquid, e.g., 29.5 mL of liquid MH-media. A spectrophotometer (plate reader) is used to measure optical density of the samples in wells of antibiotics and inoculum in order to determine if there is growth in a well. The present invention is not limited to a concentration of 10,000 cells/mL.
Interactions between pairs of bacterial species were investigated using a logistic regression model to predict resistance in the presence of specific bacterial species. […]

[3] = system: E. coli and S. agalactiae; test: as above; type: cell-based, Escherichia coli; Streptococcus agalactiae; conditions: E. coli and S. agalactiae together v. expected from each species alone (HSAP/UP)
Experimental: as §1, §2
(§3) Interactions between pairs of bacterial species were investigated using a logistic regression model to predict resistance in the presence of specific bacterial species. Bacterial species that tested positive in at least 30 samples were considered in the regression model: these 16 species were A. schaalii, A. urinae, A. omnicolens, CoNS, C. riegelii, E. faecalis, E. coli, K. oxytoca, K. pneumoniae, M. morganii, P. mirabilis, P. aeruginosa, S. aureus, S. agalactiae, U. urealyticum, VGS. Backward stepwise model selection was performed on the model with all main effects and all pairwise interactions using an enter significance level of α=0.10 and an exit significance level of α=0.05 to obtain the best fitting model. This model was used to predict resistance rates when a specific organism was present or when a specific pair of organisms were present.
(§4) Using the logistic regression model described above, the resistance rate for a pair of species was compared to the resistance rates for each species alone. […]

[4] = system: E. faecalis and S. agalactiae; test: as above; type: cell-based, Enterococcus faecalis; Streptococcus agalactiae; conditions: E. faecalis and S. agalactiae together v. expected from each species alone (HSAP/UP)
Experimental: as §1
(§5) P-AST was performed by aliquoting 1 mL of patient urine specimen into a 1.7 mL microcentrifuge tube. After centrifugation, the supernatant was aspirated and discarded, leaving approximately 100 or 50 μL (minimum volume left above pellet created from centrifugation) of patient sample in the microcentrifuge tube. […] Optical density of samples was then read on a DensiCHEK plate reader. […] A spectrophotometer (plate reader) is used to measure optical density of the samples in wells of antibiotics and inoculum in order to determine if there is growth in a well. […]

[5] = system: E. coli and P. mirabilis; test: as above; type: cell-based, Escherichia coli; Proteus mirabilis; conditions: E. coli and P. mirabilis together v. expected from each species alone (HSAP/UP)
Experimental: as §1, §2, §3, §4

[6] = system: Coagulase-negative Staphylococcus (CoNS) and E. coli; test: as above; type: cell-based, Coagulase negative staphylococci; Escherichia coli; conditions: CoNS and E. coli together v. expected from each species alone (HSAP/UP)
Experimental: as §1, §5

[7] = system: E. coli and K. oxytoca; test: as above; type: cell-based, Escherichia coli; Klebsiella oxytoca; conditions: E. coli and K. oxytoca together v. expected from each species alone (HSAP/UP)
Experimental: as §1, §5

[8] = system: E. faecalis and E. coli; test: as above; type: cell-based, Enterococcus faecalis; Escherichia coli; conditions: E. faecalis and E. coli together v. expected from each species alone (HSAP/UP)
Experimental: as §1, §5

[9] = system: E. faecalis and K. pneumoniae; test: as above; type: cell-based, Enterococcus faecalis; Klebsiella pneumoniae; conditions: E. faecalis and K. pneumoniae together v. expected from each species alone (HSAP/UP)
Experimental: as §1, §5

[10] = system: E. faecalis and P. aeruginosa; test: as above; type: cell-based, Enterococcus faecalis; Pseudomonas aeruginosa; conditions: E. faecalis and P. aeruginosa together v. expected from each species alone (HSAP/UP)
Experimental: as §1, §5

[11] = system: E. faecalis and P. mirabilis; test: as above; type: cell-based, Enterococcus faecalis; Proteus mirabilis; conditions: E. faecalis and P. mirabilis together v. expected from each species alone (HSAP/UP)
Experimental: as §1, §5

[12] = system: Coagulase-negative Staphylococcus (CoNS) and E. faecalis; test: as above; type: cell-based, Coagulase negative staphylococci; Enterococcus faecalis; conditions: CoNS and E. faecalis together v. expected from each species alone (HSAP/UP)
Experimental: as §1, §5

[13] = system: Coagulase-negative Staphylococcus (CoNS) and S. agalactiae; conditions: CoNS and S. agalactiae together v. expected from each species alone (HSAP/UP)
Experimental: as §6
P-AST was performed by aliquoting 1 mL of patient urine specimen into a 1.7 mL microcentrifuge tube. After centrifugation, the supernatant was aspirated and discarded, leaving approximately 100 or 50 μL (minimum volume left above pellet created from centrifugation) of patient sample in the microcentrifuge tube. One mL of Mueller Hinton Growth Media was then aliquoted into the patient sample in the microcentrifuge tube and the tubes were incubated at 35° C. in a non-CO2 incubator for 6 hours. […] Those samples that reached a minimum threshold of 10,000 cells/mL were then diluted by aliquoting 0.5 mL of sample into a 50 mL conical tube containing Mueller Hinton Growth Media (in this example, the dilution was 1:60, e.g., 500 μL was added to 29.5 mL). 96-well plates pre-loaded with antibiotics were then inoculated with diluted samples and incubated along with control plates for 12-16 hours at 35° C. in a single layer. Optical density of samples was then read on a DensiCHEK plate reader. The DensiCHEK instrument is used to measure the concentration of turbid samples considered positive because PCR-ID result was >=10,000 cells/mL. The turbid samples were diluted/normalized to the same concentration and then added to a volume of liquid, e.g., 29.5 mL of liquid MH-media. A spectrophotometer (plate reader) is used to measure optical density of the samples in wells of antibiotics and inoculum in order to determine if there is growth in a well.
Interactions between pairs of bacterial species were investigated using a logistic regression model to predict resistance in the presence of specific bacterial species. Bacterial species that tested positive in at least 30 samples were considered in the regression model: these 16 species were A. schaalii, A. urinae, A. omnicolens, CoNS, C. riegelii, E. faecalis, E. coli, K. oxytoca, K. pneumoniae, M. morganii, P. mirabilis, P. aeruginosa, S. aureus, S. agalactiae, U. urealyticum, VGS. […]

CC1(C)S[C@@H]2[C@H](NC(=O)[C@H](N)c3ccccc3)C(=O)N2[C@H]1C(=O)O [Ampicillin, ampicillin]
odds of resistance for each additional species identified (in words) [1]: increased | change in antibiotic resistance of the pair of organisms [2]: reduced resistance | change in antibiotic resistance of the pair of organisms [3]: decrease in resistance; also recorded: decreased odds of resistance | change in antibiotic resistance of the pair of organisms [4]: decrease in resistance; also recorded: decreased odds of resistance

CO[C@@]1(NC(=O)Cc2cccs2)C(=O)N2C(C(=O)O)=C(COC(N)=O)CS[C@@H]21 [Cefoxitin, cefoxitin]
change in antibiotic resistance of the pair of organisms [5]: decrease in resistance; also recorded: decreased odds of resistance

CO/N=C(\C(=O)N[C@@H]1C(=O)N2C(C(=O)O)=C(CSc3nc(=O)c(=O)[nH]n3C)CS[C@H]12)c1csc(N)n1 [Ceftriaxone, ceftriaxone]
change in antibiotic resistance of the pair of organisms [6]: decrease in resistance; also recorded: decreased probability in resistance; also recorded: decreased odds of resistance | change in antibiotic resistance of the pair of organisms [2]: decrease in resistance; also recorded: decreased odds of resistance | change in antibiotic resistance of the pair of organisms [5]: decrease in resistance; also recorded: decreased odds of resistance | change in antibiotic resistance of the pair of organisms [3]: decrease in resistance; also recorded: decreased odds of resistance

O=C(O)c1cn(C2CC2)c2cc(N3CCNCC3)c(F)cc2c1=O [Ciprofloxacin, ciprofloxacin]
change in antibiotic resistance of the pair of organisms [2]: decrease in resistance; also recorded: decreased odds of resistance | change in antibiotic resistance of the pair of organisms [7]: decrease in resistance; also recorded: decreased odds of resistance | change in antibiotic resistance of the pair of organisms [3]: decrease in resistance; also recorded: decreased odds of resistance

C[C@@H](O)[C@H]1C(=O)N2C(C(=O)O)=C(S[C@@H]3CN[C@H](C(=O)N(C)C)C3)[C@H](C)[C@H]12 [Meropenem, meropenem]
change in antibiotic resistance of the pair of organisms [8]: decrease in resistance; also recorded: decreased odds of resistance | change in antibiotic resistance of the pair of organisms [9]: decrease in resistance; also recorded: decreased odds of resistance | change in antibiotic resistance of the pair of organisms [10]: decrease in resistance; also recorded: decreased odds of resistance | change in antibiotic resistance of the pair of organisms [11]: decrease in resistance; also recorded: decreased odds of resistance

CN[C@H](CC(C)C)C(=O)N[C@H]1C(=O)N[C@@H](CC(N)=O)C(=O)N[C@H]2C(=O)N[C@H]3C(=O)N[C@H](C(=O)N[C@H](C(=O)O)c4cc(O)cc(O)c4-c4cc3ccc4O)[C@H](O)c3ccc(c(Cl)c3)Oc3cc2cc(c3O[C@@H]2O[C@H](CO)[C@@H](O)[C@H](O)[C@H]2O[C@H]2C[C@](C)(N)[C@H](O)[C@H](C)O2)Oc2ccc(cc2Cl)[C@H]1O [Vancomycin, vancomycin]
odds of resistance for each additional species identified (in words) [1]: increased | change in antibiotic resistance of the pair of organisms [12]: decrease in resistance; also recorded: decreased odds of resistance | change in antibiotic resistance of the pair of organisms [4]: decrease in resistance; also recorded: decreased odds of resistance | change in antibiotic resistance of the pair of organisms [13]: decrease in resistance; also recorded: decreased odds of resistance
